Results as given in article PMC9405123, “Design, Synthesis and Mechanistic Studies of Novel Isatin-Pyrazole Hydrazone Conjugates as Selective and Potent Bacterial MetAP Inhibitors” (Antibiotics, 2022).
Converted amounts (≈) assume the structure as drawn. Read-outs that look alike come from different tables or passages of the source.

Columns and labels:
HK43 = experiment: MIC on environmental MDR isolate (microdilution); conditions: Exiguobacterium mexicanum
JST28 = experiment: MIC on environmental MDR isolate (microdilution); conditions: Escherichia coli
LG51 = experiment: MIC on environmental MDR isolate (microdilution); conditions: Escherichia coli
SH28 = experiment: MIC on environmental MDR isolate (microdilution); conditions: Aeromonas caviae
HK41 = experiment: MIC on environmental MDR isolate (microdilution); conditions: Enterobacter cloacae
LG24 = experiment: MIC on environmental MDR isolate (microdilution); conditions: Escherichia coli
JST71 = experiment: MIC on environmental MDR isolate (microdilution); conditions: Enterobacter
LG33 = experiment: MIC on environmental MDR isolate (microdilution); conditions: Enterobacter
HK91 = experiment: MIC on environmental MDR isolate (microdilution); conditions: Ralstonia
LG71 = experiment: MIC on environmental MDR isolate (microdilution); conditions: Enterobacter cloacae
HK1 = experiment: MIC on environmental MDR isolate (microdilution)
LG20 = experiment: MIC on environmental MDR isolate (microdilution); conditions: Enterobacter, isolate LG20 Enterobacter sp.
SD5 = experiment: MIC on environmental MDR isolate (microdilution); conditions: Escherichia coli, isolate SD5 E. coli
SH34 = experiment: MIC on environmental MDR isolate (microdilution); conditions: Serratia marcescens
JST78 = experiment: MIC on environmental MDR isolate (microdilution); conditions: Escherichia coli
SD6 = experiment: MIC on environmental MDR isolate (microdilution); conditions: Escherichia coli, isolate SD6 E. coli
HK32 = experiment: MIC on environmental MDR isolate (microdilution); conditions: Enterobacter cloacae
JST61 = experiment: MIC on environmental MDR isolate (microdilution); conditions: Pantoea agglomerans
JST68 = experiment: MIC on environmental MDR isolate (microdilution); conditions: Escherichia coli
LG1 = experiment: MIC on environmental MDR isolate (microdilution)
JST63 = experiment: MIC on environmental MDR isolate (microdilution)
E. faecalis [1] = experiment: Minimum inhibitory concentration (broth dilution); type: cell-based; conditions: Enterococcus faecalis, alone
P. aeruginosa [2] = experiment: Minimum inhibitory concentration (broth dilution); type: cell-based; conditions: Pseudomonas aeruginosa, alone
S. aureus [3] = experiment: Growth inhibition screening (broth dilution); type: cell-based, Staphylococcus aureus; conditions: Staphylococcus aureus
Experimental: (§1) In vitro screening of the compounds (PS1–14) was performed to assess the antibacterial activity against three Gram-positive (Staphylococcus aureus, Enterococcus faecalis and Bacillus subtilis,) and three Gram-negative (Pseudomonas aeruginosa, Klebsiella pneumonia and Escherichia coli) bacterial strains using the standard NCCLS broth dilution assay. The study’s standard drugs were ciprofloxacin (CIP) and ampicillin (AMP). Compounds were dissolved in a polar solvent (DMSO) and distributed into a 96-well plate in 200 µL of nutrient broth medium, with a final concentration of the compounds […] in each well. The bacterial cells (about 2.5 × 10^5 cells/mL) were inoculated into each well and incubated at 37 °C overnight. After incubation, the growth was measured by turbidity of the culture at 590 nm by spectrophotometer.

P. aeruginosa [4] = experiment: Growth inhibition screening (broth dilution); type: cell-based, Pseudomonas aeruginosa; conditions: Pseudomonas aeruginosa
Experimental: as §1

K. pneumoniae [5] = experiment: Growth inhibition screening (broth dilution); type: cell-based, Klebsiella pneumonia; conditions: Klebsiella pneumoniae
Experimental: as §1

B. subtilis [6] = experiment: Minimum inhibitory concentration (broth dilution); type: cell-based; conditions: Bacillus subtilis, alone
K. pneumoniae [7] = experiment: Combination study with AMP or CIP
E. coli [8] = experiment: Combination study with AMP or CIP; conditions: combination PS9 + AMP
K. pneumoniae [9] = experiment: Minimum inhibitory concentration (broth dilution); type: cell-based, Klebsiella pneumonia; conditions: Klebsiella pneumoniae, alone, read-out: MIC
S. aureus [10] = experiment: Minimum inhibitory concentration (broth dilution); type: cell-based; conditions: Staphylococcus aureus, alone
E. coli [11] = experiment: Minimum inhibitory concentration (broth dilution); type: cell-based, Escherichia coli; conditions: alone
S. aureus [12] = experiment: Combination study with AMP or CIP
E. faecalis [13] = experiment: Growth inhibition screening (broth dilution); type: cell-based, Enterococcus faecalis; conditions: Enterococcus faecalis
Experimental: as §1

P. aeruginosa [14] = experiment: Combination study with AMP or CIP; conditions: combination PS9 + AMP
E. faecalis [15] = experiment: Combination study with AMP or CIP
B. subtilis [16] = experiment: Growth inhibition screening (broth dilution); type: cell-based, Bacillus subtilis; conditions: Bacillus subtilis
Experimental: as §1

E. coli [17] = experiment: Growth inhibition screening (broth dilution); type: cell-based, Escherichia coli; conditions: Escherichia coli
Experimental: as §1

[18] = system: human red blood cells (hRBCs); experiment: Hemolytic activity; type: cell-based
Experimental: The compound PS9 was evaluated for hemolytic effect on human RBCs. In brief, RBCs suspension 10% (v/v) cleaned with 1 × PBS and resuspended again in 1 × PBS (pH 7.4). […] The samples were centrifuged and absorbance of the supernatant was taken at 415 nm to obtain the percentage of RBCs lysis. Triton X-100 with 1% (v/v) was used as a positive control. Percentage of RBCs lysis was calculated as:% RBCs lysis = (OD415nm sample − OD415nm PBS)/(OD415nm Triton X-100 1% − OD415nm PBS)(1)

EcMetAP1 = system: EcMetAP1; parameters: method as in PMID 15506752; conditions: Co(II) as the cofactor; cited from earlier work

CO/N=C(\C(=O)N[C@@H]1C(=O)N2C(C(=O)O)=C(COC(C)=O)CS[C@H]12)c1csc(N)n1 [CTX, cefotaxime] gave an MIC (HK43) of 1020 µg/mL (≈ 2250 µM), an MIC (JST28) of 8 µg/mL (≈ 17.6 µM) and an MIC (LG51) of 64 µg/mL (≈ 141 µM). The MIC (SH28) was < 2 µg/mL, the MIC (HK41) was 32 µg/mL (≈ 70.3 µM) and the MIC (LG24) was 64 µg/mL (≈ 141 µM). For the same compound, the MIC (JST71) was 1020 µg/mL (≈ 2250 µM), the MIC (LG33) was 8 µg/mL (≈ 17.6 µM) and the MIC (HK91) was 8 µg/mL (≈ 17.6 µM). The MIC (LG71) was 1020 µg/mL (≈ 2250 µM), the MIC (HK1) was 128 µg/mL (≈ 281 µM) and the MIC (LG20) was 32 µg/mL (≈ 70.3 µM). It also gave an MIC (SD5) of 1000 µg/mL (≈ 2200 µM), an MIC (SH34) of 8 µg/mL (≈ 17.6 µM) and an MIC (JST78) of 128 µg/mL (≈ 281 µM). The MIC (SD6) was 1000 µg/mL (≈ 2200 µM), the MIC (HK32) was 256 µg/mL (≈ 562 µM) and the MIC (JST61) was 256 µg/mL (≈ 562 µM). The MIC (JST68) was 512 µg/mL (≈ 1120 µM), the MIC (LG1) was 16 µg/mL (≈ 35.1 µM) and the MIC (JST63) was 128 µg/mL (≈ 281 µM).
CC1(C)S[C@@H]2[C@H](NC(=O)[C@H](N)c3ccccc3)C(=O)N2[C@H]1C(=O)O [AMP, ampicillin, reference compound] showed an MIC (HK43) of 1020 µg/mL (≈ 2930 µM), an MIC (E. faecalis [1]) of 16 µg/mL (≈ 45.8 µM) and an MIC (P. aeruginosa [2]) of 1 µg/mL (≈ 2.86 µM). For the same compound, the inhibition at 250 µg/mL (S. aureus [3]) was 100%, the inhibition at 250 µg/mL (P. aeruginosa [4]) was 100% and the inhibition at 250 µg/mL (K. pneumoniae [5]) was 100%. The MIC (JST28) was 1020 µg/mL (≈ 2930 µM), the MIC (LG51) was 1020 µg/mL (≈ 2930 µM) and the MIC (B. subtilis [6]) was 0.25 µg/mL (≈ 0.715 µM). The “MIC in Combination” value (K. pneumoniae [7]; combination PS6 + AMP) was 0.25 µg/mL, the “MIC in Combination” value (K. pneumoniae [7]; combination PS9 + AMP) was 0.5 µg/mL and the MIC (SH28) was 16 µg/mL (≈ 45.8 µM). The “MIC in Combination” value (E. coli [8]) was 0.25 µg/mL, the MIC (HK41) was 256 µg/mL (≈ 733 µM) and the MIC (LG24) was < 2 µg/mL. It also gave an MIC (JST71) of 1020 µg/mL (≈ 2930 µM), an MIC (LG33) of 8 µg/mL (≈ 22.9 µM) and an MIC (HK91) of 8 µg/mL (≈ 22.9 µM). For the same compound, the MIC (LG71) was 512 µg/mL (≈ 1470 µM), the MIC (K. pneumoniae [9]) was 2 µg/mL (≈ 5.72 µM) and the MIC (S. aureus [10]) was 0.25 µg/mL (≈ 0.715 µM). It also gave an MIC (HK1) of 256 µg/mL (≈ 733 µM), an MIC (E. coli [11]; Escherichia coli, read-out: MIC) of 1 µg/mL (≈ 2.86 µM) and an MIC (E. coli [11]) of 1 µg/mL (≈ 2.86 µM). For the same compound, the “MIC in Combination” value (S. aureus [12]; combination PS6 + AMP) was 0.0625 µg/mL, the “MIC in Combination” value (S. aureus [12]; combination PS9 + AMP) was 0.0625 µg/mL and the MIC (LG20) was 32 µg/mL (≈ 91.6 µM). For the same compound, the MIC (SD5) was 32 µg/mL (≈ 91.6 µM), the inhibition at 250 µg/mL (E. faecalis [13]) was 100% and the MIC (SH34) was 8 µg/mL (≈ 22.9 µM). The MIC (JST78) was > 1020 µg/mL, the MIC (SD6) was 1000 µg/mL (≈ 2860 µM) and the “MIC in Combination” value (P. aeruginosa [14]) was 0.25 µg/mL. For the same compound, the MIC (HK32) was 1020 µg/mL (≈ 2930 µM), the MIC (JST61) was 128 µg/mL (≈ 366 µM) and the MIC (JST68) was 64 µg/mL (≈ 183 µM). The “MIC in Combination” value (E. faecalis [15]; combination PS6 + AMP) was 0.50 µg/mL, the “MIC in Combination” value (E. faecalis [15]; combination PS9 + AMP) was 0.5 µg/mL and the MIC (JST63) was 128 µg/mL (≈ 366 µM). For the same compound, the inhibition at 250 µg/mL (B. subtilis [16]) was 100% and the inhibition at 250 µg/mL (E. coli [17]) was 100%.
With Triton-X 100 [reference compound] the hemolysis [18] was 100%.
For O=C(Nc1nccs1)C(=O)NC1CCCC1 [A, N1-cyclopentyl-N2-(thiazol-2-yl)oxalamide], the IC50 (EcMetAP1) is given as 67 nM.
